# Assay results from patent publication US20250154525A1, “PLANT VIRUS MOVEMENT PROTEINS AND METHODS OF USING SAME” (Molecular Transfer, Inc., priority 2016, published 2025).
# Key:
# [1] = test system: HeLa Cells; test: GFP plasmid transfection with DOTMA/DOPE plus surface ligand peptide, fluorescent plate reader (Example 1); type: cell-based; settings: DOTMA/DOPE + peptide linked to R12 or K16; EF1Alpha eGFP plasmid; 42 hours
# Procedure: (§1) Cells were plated to so that on the day of transfection the cells were 70% confluent in 96 well tissue culture plates. A DOMTA/DOPE Lipid solution (1:1 molar ratio) at 2 mg/mL in water were mixed with an equal volume cell surface ligand containing adhesion peptide, the plant virus movement protein, or peptide derived therefrom, that had the nucleic acid binding moiety RRRRRRRRRRRR (SEQ ID NO:109) or KKKKKKKKKKKKKKKK (SEQ ID NO: 102) covalently linked to the N-terminus, or C-terminus of each peptide during peptide synthesis. Peptides were at 2 mg/mL in water. The DOTMA/DOPE and the solution containing the cell surface ligand containing adhesion peptide, the plant virus movement protein, or peptide derived therefrom, surface ligand peptide the was diluted 1 to 1 (v/v) in water. DOMTA/DOPE/PEPTIDE solutions were added to 0.1 mL of a plasmid DNA solution (EF1Alpha eGFP plasmid) at 10 μg/mL in OptiMEM.
# (§2) All solutions were at room temperature. A volume of 0.2 mL of a 10 μg/mL solution of DNA was aliquoted into each well of a non-tissue cultured treated plate. 1-12 μL of transfection reagents were added to DNA solutions respectively. The transfection reagent and DNA solution was mixed by pipetting up and down twice. Transfection complexes were formed for 10 minutes. After 10 minutes, 0.01 or 0.02 mL of the transfection complex was added to cells. HuVEC, HeLa, human adult keratinocytes, human primary adult fibroblast, and A549 cells all respectively received 0.01 mL of the transfection complex. Human skeletal muscle cells, mouse C2C12 cells, and Jurkat, cells received 0.02 mL of the transfection complex. Cells were incubated for 42 hours at 37° C. at 5% CO2. Plates were read on a fluorescent plate reader. Cells were also examined visually under a microscope to assess the extent of transfection (in terms of the percent of cells transfected) with a fluorescent microscope. Other modes of analysis, for example quantification with B-galactocidase or luciferase reports plasmids can also be used.
# (§3) Surface ligand that caused increase expression of GFP over the lipid DOTMA with no surface ligand were considered to enhance transfection or had higher % cells transfected were considered to enhance transfection. Peptides that gave greater than 2-fold enhancement are noted in bold and could be further optimized by adding different transfection enhancers or could be used with different cationic lipids or polymers.
# (§4) Tables 2-7, below, provide the results of the transfection enhancements with the various cell types, while Table 8 lists the peptides that were determined by visual inspection to enhance the transfection of the denoted cell lines over the lipid DOTMA.
# [2] = test system: HuVec Cells; test: as above; type: cell-based; settings: DOTMA/DOPE + peptide linked to R12 or K16; EF1Alpha eGFP plasmid; 42 hours
# Procedure: as §1, §2, §3, §4
# [3] = test system: Human Fibroblast Cells; test: as above; type: cell-based; settings: DOTMA/DOPE + peptide linked to R12 or K16; EF1Alpha eGFP plasmid; 42 hours
# Procedure: as §1, §2, §3, §4
# [4] = test system: Jurkat Cells; test: as above; type: cell-based; settings: DOTMA/DOPE + peptide linked to R12 or K16; EF1Alpha eGFP plasmid; 42 hours
# Procedure: as §1, §2, §3, §4
# [5] = test system: NL-1 iPS Cells; test: as above; type: cell-based; settings: DOTMA/DOPE + peptide linked to R12 or K16; EF1Alpha eGFP plasmid; 42 hours
# Procedure: as §1, §2, §3, §4
# [6] = test system: C2C12 Cells; test: as above; type: cell-based, mouse; settings: DOTMA/DOPE + peptide linked to R12 or K16; EF1Alpha eGFP plasmid; 42 hours
# Procedure: as §1, §2, §3, §4
# [7] = test system: some examined cell types; test: Summary of Example 1: transfection expression and % cells transfected over the no peptide control; type: cell-based; settings: on some examined cell types
# Procedure: as §1, §2, §3
Substance,Relative Fluorescence of Transfection of HeLa Cells (RF) [1],Relative Fluorescence of Transfection of HuVec Cells (RF) [2],Relative Fluorescence of Transfection of Human Fibroblast Cells (RF) [3],Relative Fluorescence of Transfection of Jurkat Cells (RF) [4],Relative Fluorescence of Transfection of NL-1 iPS Cells (RF) [5],Relative Fluorescence of Transfection of C2C12 Cells (RF) [6],transfection expression and % cells transfected over the no peptide control [7]
361 (YIGSR) [compound 361],3698,6017,7014,7006,9363,585,increased transfection expression and the % cells transfected
332 (TWYKIAFQRNRK) [compound 332],9198,4221,5178,3052,8725,537,increased transfection expression and the % cells transfected
327 (VAEIDGIEL) [compound 327],5345,21018,4662,14546,31383,2043,increased transfection expression and the % cells transfected
345 (TAGSCLRKFSTMFLF) [compound 345],8493,2939,2816,2462,7836,6569,increased transfection expression and the % cells transfected
216 (YRVRVTPKEKTGPMKE) [compound 216],6181,14693,3117,3570,19626,1001,increased transfection expression and the % cells transfected
256 (RQVFQVAYIIIKA) [compound 256],2243,3030,2656,3322,1825,3207,increased transfection expression and the % cells transfected
226 (ANGQTPIQRYIK) [compound 226],7340,20864,3431,12976,24920,1664,increased transfection expression and the % cells transfected
